The text below walks through data of paper PMC10938434, “Design, Synthesis, and Biological Effect Studies of Novel Benzofuran–Thiazolylhydrazone Derivatives as Monoamine Oxidase Inhibitors” (ACS Omega, 2024).

As usually defined, the IC50 is the concentration at which inhibition is half-maximal. As usually defined, the inhibition is the share of the control response that was lost under treatment.

For one experiment, the target named is T1, MAO-B enzyme (Homo sapiens, UniProt P27338).
T1 sequence (P27338 1-520): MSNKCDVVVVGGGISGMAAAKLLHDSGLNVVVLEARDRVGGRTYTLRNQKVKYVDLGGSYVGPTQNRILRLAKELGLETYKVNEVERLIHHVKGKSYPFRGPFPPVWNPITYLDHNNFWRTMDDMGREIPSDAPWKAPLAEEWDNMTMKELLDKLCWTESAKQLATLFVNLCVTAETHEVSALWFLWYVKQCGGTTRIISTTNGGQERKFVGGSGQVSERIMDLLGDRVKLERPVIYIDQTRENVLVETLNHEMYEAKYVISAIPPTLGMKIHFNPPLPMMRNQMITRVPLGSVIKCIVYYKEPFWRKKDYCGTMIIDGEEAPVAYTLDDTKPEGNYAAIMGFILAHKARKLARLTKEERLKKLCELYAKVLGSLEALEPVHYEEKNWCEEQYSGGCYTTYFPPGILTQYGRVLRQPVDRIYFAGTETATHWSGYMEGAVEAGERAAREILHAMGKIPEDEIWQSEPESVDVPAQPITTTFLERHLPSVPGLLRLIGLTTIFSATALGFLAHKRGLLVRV
Kind of experiment: MAO-B enzyme inhibition, fluorometric method. Particulars: for inhibition at 1000 µM: 10^–3 M; for inhibition at 100 µM: read-out: MAO-B % inhibition 10^–4 M, 10^–4 M. Type of experiment: biochemical. From the text:
(§1) Inhibition profiles of the synthesized compounds on MAO enzymes were investigated by the fluorometric method.
In every step of the method, distilled water obtained from a Millipor, a Milli-Q Synthesis A10 purification device, was used. Care was taken in preparing all of the solutions used fresh and to consume them within 1 week after preparation. A BioTek-Precision Power robotic pipetting system was used in the processes of separating the solutions prepared in the enzyme inhibition study, applying the test compounds to 96-well plates, and adding the enzyme–substrate solutions. The creation, monitoring, and spectrophotometric measurements of the enzyme protocol were performed on a BioTek-Synergy H1 microplate reader.[41],[42]

The next experiment concerns the target T2, MAO-A enzyme (Homo sapiens, UniProt P21397).
T2 sequence (P21397 1-527): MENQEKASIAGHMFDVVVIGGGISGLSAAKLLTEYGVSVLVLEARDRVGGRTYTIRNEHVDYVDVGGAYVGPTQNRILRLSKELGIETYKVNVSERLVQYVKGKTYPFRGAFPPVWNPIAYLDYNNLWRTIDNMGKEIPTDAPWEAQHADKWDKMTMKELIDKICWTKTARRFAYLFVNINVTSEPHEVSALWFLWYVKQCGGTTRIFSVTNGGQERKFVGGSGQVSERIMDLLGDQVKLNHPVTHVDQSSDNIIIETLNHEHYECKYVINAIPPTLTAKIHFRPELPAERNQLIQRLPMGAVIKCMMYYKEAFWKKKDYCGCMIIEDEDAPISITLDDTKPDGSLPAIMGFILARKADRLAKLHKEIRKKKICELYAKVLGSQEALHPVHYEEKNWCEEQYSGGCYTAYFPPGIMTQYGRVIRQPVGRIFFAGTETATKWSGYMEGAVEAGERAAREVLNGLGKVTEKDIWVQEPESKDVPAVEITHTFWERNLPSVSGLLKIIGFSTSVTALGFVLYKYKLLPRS
Briefly: MAO-A enzyme inhibition, fluorometric method. Type of experiment: biochemical. Particulars: for IC50: 10^–3–10^–9 M concentrations; for selectivity: MAO isoform preferentially inhibited; for SI* selectivity index: SI = IC50MAO-B/IC50 MAO-A; for inhibition at 1000 µM: read-out: MAO-A % inhibition 10^–3 M; for inhibition at 100 µM: read-out: MAO-A % inhibition 10^–4 M.
Excerpt: as §1
In every step of the method, distilled water obtained from a Millipor, a Milli-Q Synthesis A10 purification device, was used. Care was taken in preparing all of the solutions used fresh and to consume them within 1 week after preparation. A BioTek-Precision Power robotic pipetting system was used in the processes of separating the solutions prepared in the enzyme inhibition study, applying the test compounds to 96-well plates, and adding the enzyme–substrate solutions.

Take `C(=NNc1nc(-c2ccccc2)cs1)c1cc2ccccc2o1` [2a, 2-(2-(Benzofuran-2-ylmethylene)hydrazinyl)-4-phenylthiazole]: on MAO-B enzyme, the IC50 was 0.8 ± 0.03 µM, the inhibition at 1000 µM came to 85.2 ± 1.01% and the inhibition at 100 µM is over 50%. At MAO-A enzyme, the IC50 was found to be 0.08 ± 0.01 µM, the selectivity result is “MAO-A”, the “SI* selectivity index” value is over 9.91 and the inhibition at 1000 µM is 90.4 ± 1.66%. At MAO-A enzyme, the inhibition at 100 µM worked out at 83.7 ± 1.09%.
On to `Cc1ccc(-c2csc(NN=Cc3cc4ccccc4o3)n2)cc1` [2b, 2-(2-(Benzofuran-2-ylmethylene)hydrazinyl)-4-(p-tolyl)thiazole], for which, at MAO-B enzyme, the IC50 was over 100 µM, the inhibition at 1000 µM came to 64.5 ± 1.12% and the inhibition at 100 µM stood at 47.1 ± 0.85%. Moreover, on MAO-A enzyme, the IC50 came to 0.21 ± 0.01 µM, the selectivity entry is “MAO-A”, the “SI* selectivity index” value is given as over 458.72 and the inhibition at 1000 µM was 87 ± 1.92%. Also, the inhibition at 100 µM at MAO-A enzyme is 78.2 ± 1.44%.
As for `COc1ccc(-c2csc(NN=Cc3cc4ccccc4o3)n2)cc1` [2c, 2-(2-(Benzofuran-2-ylmethylene)hydrazinyl)-4-(4-methoxyphenyl)thiazole], on MAO-B enzyme, the IC50 was over 100 µM, the inhibition at 1000 µM was 55.8 ± 0.96% and the inhibition at 100 µM turned out to be 42.8 ± 0.89%. Also, on MAO-A enzyme, the IC50 amounted to 0.18 ± 0.01 µM, the selectivity result is recorded as “MAO-A”, the “SI* selectivity index” value is listed as over 568.18 and the inhibition at 1000 µM amounted to 85.2 ± 2.03%. Moreover, on MAO-A enzyme, the inhibition at 100 µM is 72.8 ± 1.36%.
Regarding `N#Cc1ccc(-c2csc(NN=Cc3cc4ccccc4o3)n2)cc1` [2d, 4-(2-(2-(Benzofuran-2-ylmethylene)hydrazinyl)thiazol-4-yl)benzonitrile], on MAO-B enzyme, the IC50 was over 100 µM, the inhibition at 1000 µM is 69 ± 1.05% and the inhibition at 100 µM was 40.7 ± 0.98%. Also, on MAO-A enzyme, the IC50 amounted to 0.31 ± 0.01 µM, the selectivity entry is given as “MAO-A”, the “SI* selectivity index” value was over 326.79 and the inhibition at 1000 µM amounted to 80.8 ± 1.69%. Also, the inhibition at 100 µM on MAO-A enzyme came out at 71 ± 1.18%.
For `O=[N+]([O-])c1ccc(-c2csc(NN=Cc3cc4ccccc4o3)n2)cc1` [2e, 2-(2-(Benzofuran-2-ylmethylene)hydrazinyl)-4-(4-nitrophenyl)thiazole], at MAO-B enzyme, the IC50 is over 100 µM, the inhibition at 1000 µM was found to be 72.1 ± 1.4% and the inhibition at 100 µM was 48.3 ± 0.86%. Besides, at MAO-A enzyme, the IC50 was 0.26 ± 0.01 µM, the selectivity result was “MAO-A”, the “SI* selectivity index” value is listed as over 386.10 and the inhibition at 1000 µM amounted to 83.2 ± 1.65%. For the same compound, the inhibition at 100 µM at MAO-A enzyme was 69.3 ± 0.9%.
For `Fc1ccc(-c2csc(NN=Cc3cc4ccccc4o3)n2)cc1` [2f, 2-(2-(Benzofuran-2-ylmethylene)hydrazinyl)-4-(4-fluorophenyl)thiazole], on MAO-B enzyme, the IC50 stood at 1.37 ± 0.06 µM, the inhibition at 1000 µM was 82.7 ± 1.66% and the inhibition at 100 µM is over 50%. On MAO-A enzyme, the midpoint of inhibition, the IC50, lay at 0.34 ± 0.01 µM; the selectivity entry is “MAO-A”; the “SI* selectivity index” value is on record as over 4.06; the inhibition at 1000 µM stood at 85.7 ± 1.48%. The inhibition at 100 µM on MAO-A enzyme worked out at 73.6 ± 1.16%.
`Clc1ccc(-c2csc(NN=Cc3cc4ccccc4o3)n2)cc1` [2g, 2-(2-(Benzofuran-2-ylmethylene)hydrazinyl)-4-(4-chlorophenyl)thiazole]: at MAO-B enzyme, the IC50 was over 100 µM, the inhibition at 1000 µM amounted to 68.4 ± 0.97% and the inhibition at 100 µM worked out at 45.2 ± 0.86%. In addition, at MAO-A enzyme, inhibition was half-maximal at 0.09 ± 0.01 µM (IC50), the selectivity result is “MAO-A”, the “SI* selectivity index” value is on record as over 1075.27 and the inhibition at 1000 µM worked out at 79.5 ± 1.06%. Moreover, the inhibition at 100 µM on MAO-A enzyme turned out to be 68.7 ± 0.94%.
Regarding `Brc1ccc(-c2csc(NN=Cc3cc4ccccc4o3)n2)cc1` [2h, 2-(2-(Benzofuran-2-ylmethylene)hydrazinyl)-4-(4-bromophenyl)thiazole], on MAO-B enzyme, the IC50 was determined as 1.06 ± 0.05 µM, the inhibition at 1000 µM worked out at 70.2 ± 1.36% and the inhibition at 100 µM is over 50%. At MAO-A enzyme, the IC50 turned out to be 0.42 ± 0.02 µM, the selectivity result is reported as “MAO-A”, the “SI* selectivity index” value is over 2.53 and the inhibition at 1000 µM came to 86.8 ± 1.6%. Besides, the inhibition at 100 µM on MAO-A enzyme came to 78.5 ± 1.09%.
As to `Cc1ccc(-c2csc(NN=Cc3cc4ccccc4o3)n2)c(C)c1` [2i, 2-(2-(Benzofuran-2-ylmethylene)hydrazinyl)-4-(2,4-dimethylphenyl)thiazole], at MAO-B enzyme, the IC50 was 1.69 ± 0.08 µM, the inhibition at 1000 µM was 73.5 ± 1.49% and the inhibition at 100 µM is over 50%. Further, on MAO-A enzyme, the IC50 was 0.43 ± 0.02 µM, the selectivity result is on record as “MAO-A”, the “SI* selectivity index” value is over 3.93 and the inhibition at 1000 µM is 84.2 ± 1.35%. In addition, the inhibition at 100 µM at MAO-A enzyme turned out to be 71.3 ± 1.86%.
Take `COc1ccc(-c2csc(NN=Cc3cc4ccccc4o3)n2)c(OC)c1` [2j, 2-(2-(Benzofuran-2-ylmethylene)hydrazinyl)-4-(2,4-dimethoxyphenyl)thiazole]: at MAO-B enzyme, the IC50 is over 100 µM, the inhibition at 1000 µM amounted to 67.9 ± 1.3% and the inhibition at 100 µM turned out to be 41.5 ± 0.75%. In addition, on MAO-A enzyme, inhibition was half-maximal at 0.14 ± 0.01 µM (IC50), the selectivity result is listed as “MAO-A”, the “SI* selectivity index” value is recorded as over 719.42 and the inhibition at 1000 µM is 87.5 ± 1.8%. Moreover, the inhibition at 100 µM at MAO-A enzyme came out at 68.4 ± 1.15%.
Regarding `Fc1ccc(-c2csc(NN=Cc3cc4ccccc4o3)n2)c(F)c1` [2k, 2-(2-(Benzofuran-2-ylmethylene)hydrazinyl)-4-(2,4-difluorophenyl)thiazole], at MAO-B enzyme, the IC50 is over 100 µM, the inhibition at 1000 µM is 74.5 ± 1.4% and the inhibition at 100 µM is 40.7 ± 0.95%. Further, at MAO-A enzyme, the IC50 is 0.13 ± 0.01 µM, the selectivity entry is recorded as “MAO-A”, the “SI* selectivity index” value is reported as over 787.40 and the inhibition at 1000 µM worked out at 89.9 ± 1.76%. The inhibition at 100 µM at MAO-A enzyme is 73.7 ± 0.83%.
For `O=C(NCCN1CCOCC1)c1ccc(Cl)cc1` [Moclobemid, moclobemide, reference compound], at MAO-A enzyme, the inhibition at 1000 µM worked out at 94.1 ± 2.76% and the inhibition at 100 µM stood at 82.1 ± 2.69%.
